{"source": "patent US20040028749A1", "about": "“Treating inflammation and associated complications” (priority 2000, published 2004)", "target": "T1, EPO (Sus scrofa, UniProt P80550)", "T1 construct": "from tissue; host or cells: porcine whole blood (leukocytes/eosinophils)", "T1 sequence (P80550 143-704)": "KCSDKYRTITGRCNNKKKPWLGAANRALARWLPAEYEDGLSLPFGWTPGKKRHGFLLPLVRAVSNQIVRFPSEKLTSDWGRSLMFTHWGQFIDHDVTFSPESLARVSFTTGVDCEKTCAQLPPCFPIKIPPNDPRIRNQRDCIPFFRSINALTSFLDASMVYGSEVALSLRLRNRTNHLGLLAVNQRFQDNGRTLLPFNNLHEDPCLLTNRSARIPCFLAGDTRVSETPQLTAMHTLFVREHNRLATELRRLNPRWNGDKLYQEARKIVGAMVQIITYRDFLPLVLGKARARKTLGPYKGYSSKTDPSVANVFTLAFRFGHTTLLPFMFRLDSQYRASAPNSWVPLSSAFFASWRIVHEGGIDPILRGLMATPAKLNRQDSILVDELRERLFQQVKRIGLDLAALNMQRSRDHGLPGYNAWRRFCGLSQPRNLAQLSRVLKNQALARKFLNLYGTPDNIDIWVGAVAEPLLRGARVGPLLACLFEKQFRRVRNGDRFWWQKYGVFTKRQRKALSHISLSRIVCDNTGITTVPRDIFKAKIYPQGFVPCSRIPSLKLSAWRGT", "experiment": "Stopped-flow kinetics of NO with EPO compounds I and II", "type": "biochemical", "details": "10 μM H2O2", "description": "[…] EPO was isolated from porcine whole blood obtained fresh at the slaughterhouse as described by Jorg et al. (1982) Biochim Biophys Acta 701:185-191. EPO was assayed by guaiacol oxidation (see Klebanoff et al. (1984) Methods Enzymol. 105:399-403). […] The concentration of the MPO dimer was calculated as half the indicated concentration of heme-like chromophore. Bovine LPO was obtained from Worthington Biochemistry Corporation (Lakewood, N.J.) and used without further purification.\nStopped-flow spectroscopy was used to investigate how NO interacts with intermediate forms of EPO and LPO during steady-state catalysis. […] The time courses for the formation and decay of compound II of both EPO and LPO in the absence of NO were examined by monitoring the absorbance change at 445 nm for EPO and at 430 nm for LPO. For both enzymes, the changes in absorbance that took place in the first 2 seconds of the reactions are shown and are attributed to the buildup of compound II. […] The subsequent decreases in absorbance at 455 and 430 nm observed for both enzymes were also fit to a single-exponential function with a rate constant of 0.005 s^−1 for EPO and 0.0005 s^−1 for LPO. […]\nThe addition of NO to reaction mixtures of EPO or LPO results in dramatic effects on the rates of compound II buildup, duration, and decay, as assessed by stopped-flow spectroscopy. […]"}
{"compound": "[N]=O", "note": "[NO, nitric oxide]", "values": [{"measurement": "enhancement of rate of EPO compound II accumulation", "result": "~25", "unit": "fold"}]}
